Test results taken from patent US20050009840A1 (SUGEN, INC., priority 2003, published 2005).

The compounds below were run against T1, HGFR (Homo sapiens, UniProt P08581) (assay: HGFR continuous-coupled spectrophotometric assay). Details: at 1 μM; Table 8, library procedure 43; read-out: % Inhibition (percent c-MET inhibition).
T1 construct: purchased Upstate 14-526
Type: biochemical

T1 sequence (P08581 974-1390 limits assumed): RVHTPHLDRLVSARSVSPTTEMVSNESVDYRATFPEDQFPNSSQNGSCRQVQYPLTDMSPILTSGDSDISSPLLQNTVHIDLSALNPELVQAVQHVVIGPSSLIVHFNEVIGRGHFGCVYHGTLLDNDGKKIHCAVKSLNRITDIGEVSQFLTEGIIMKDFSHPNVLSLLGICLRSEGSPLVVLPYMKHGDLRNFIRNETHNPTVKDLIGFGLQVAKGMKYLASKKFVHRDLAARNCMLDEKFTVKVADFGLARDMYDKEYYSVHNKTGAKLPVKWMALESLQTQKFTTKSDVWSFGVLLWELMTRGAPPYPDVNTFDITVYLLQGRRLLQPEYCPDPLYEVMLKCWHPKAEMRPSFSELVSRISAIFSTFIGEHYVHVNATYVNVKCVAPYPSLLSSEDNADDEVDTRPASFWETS

inhibition at 1 µM [%] | SMILES
11 | CC1CN(C(=O)c2ccc(-c3cnc(N)c(OCc4nccn4Cc4ccccc4)c3)cc2)CC(C)N1 (stereo not shown)
13 | CC1CN(C(=O)c2ccc(-c3cnc(N)c(OCc4ccc(C#N)cc4)c3)cc2)CC(C)N1 (stereo not shown)
11 | CC1CN(C(=O)c2ccc(-c3cnc(N)c(OCc4cccc(C#N)c4)c3)cc2)CC(C)N1 (stereo not shown)
32 | CC1CN(C(=O)c2ccc(-c3cnc(N)c(OCc4cc(Cl)ccc4Cl)c3)cc2)CC(C)N1 (stereo not shown)
16 | CC1CN(C(=O)c2ccc(-c3cnc(N)c(OCc4nc(CS(=O)(=O)c5ccccn5)no4)c3)cc2)CC(C)N1 (stereo not shown)
16 | CC1CN(C(=O)c2ccc(-c3cnc(N)c(OCc4cc(-c5c(Cl)cccc5Cl)no4)c3)cc2)CC(C)N1 (stereo not shown)
17 | CC1CN(C(=O)c2ccc(-c3cnc(N)c(OCc4cccc(OC(F)(F)F)c4)c3)cc2)CC(C)N1 (stereo not shown)
7 | Cc1cc(COc2cc(-c3ccc(C(=O)N4CC(C)NC(C)C4)cc3)cnc2N)nc(-c2ccc(C(F)(F)F)cn2)n1 (stereo not shown)
21 | CC1CN(C(=O)c2ccc(-c3cnc(N)c(OCc4cc(F)ccc4Br)c3)cc2)CC(C)N1 (stereo not shown)
28 | CC1CN(C(=O)c2ccc(-c3cnc(N)c(OCc4cccc(Cl)c4F)c3)cc2)CC(C)N1 (stereo not shown)
29 | CC1CN(C(=O)c2ccc(-c3cnc(N)c(OCc4ccc(Cl)c(Cl)c4)c3)cc2)CC(C)N1 (stereo not shown)
20 | CC1CN(C(=O)c2ccc(-c3cnc(N)c(OCc4cc(F)c(F)cc4F)c3)cc2)CC(C)N1 (stereo not shown)
25 | CC1CN(C(=O)c2ccc(-c3cnc(N)c(OCc4ccc(F)c(F)c4F)c3)cc2)CC(C)N1 (stereo not shown)
22 | CC1CN(C(=O)c2ccc(-c3cnc(N)c(OCc4ccc(C(F)(F)F)cc4C(F)(F)F)c3)cc2)CC(C)N1 (stereo not shown)
41 | CC1CN(C(=O)c2ccc(-c3cnc(N)c(OCc4c(F)ccc(F)c4F)c3)cc2)CC(C)N1 (stereo not shown)
28 | Cc1cccc(COc2cc(-c3ccc(C(=O)N4CC(C)NC(C)C4)cc3)cnc2N)c1F (stereo not shown)
17 | CC1CN(C(=O)c2ccc(-c3cnc(N)c(OCc4ccc(-c5csnn5)cc4)c3)cc2)CC(C)N1 (stereo not shown)
19 | CC1CN(C(=O)c2ccc(-c3cnc(N)c(OCc4cc(F)cc(C(F)(F)F)c4)c3)cc2)CC(C)N1 (stereo not shown)
33 | CC1CN(C(=O)c2ccc(-c3cnc(N)c(OCc4c(F)cccc4C(F)(F)F)c3)cc2)CC(C)N1 (stereo not shown)
11 | CC1CN(C(=O)c2ccc(-c3cnc(N)c(OCc4cc(F)c(F)c(F)c4)c3)cc2)CC(C)N1 (stereo not shown)

inhibition at 1 µM [%] | SMILES
24 | CC1CN(C(=O)c2ccc(-c3cnc(N)c(OCc4ccccc4OC(F)F)c3)cc2)CC(C)N1 (stereo not shown)
24 | CC1CN(C(=O)c2ccc(-c3cnc(N)c(OCc4ccc(C(F)(F)F)cc4F)c3)cc2)CC(C)N1 (stereo not shown)
29 | CC1CN(C(=O)c2ccc(-c3cnc(N)c(OCc4ccc(Br)cc4F)c3)cc2)CC(C)N1 (stereo not shown)
42 | CC1CN(C(=O)c2ccc(-c3cnc(N)c(OCc4cc(Br)cc(Br)c4)c3)cc2)CC(C)N1 (stereo not shown)
73 | CC1CN(C(=O)c2ccc(-c3cnc(N)c(OCc4ccc(-c5ccccc5C#N)cc4)c3)cc2)CC(C)N1 (stereo not shown)
19 | CC1CN(C(=O)c2ccc(-c3cnc(N)c(OCc4cccc(F)c4F)c3)cc2)CC(C)N1 (stereo not shown)
17 | CC1CN(C(=O)c2ccc(-c3cnc(N)c(OCc4ncc(C(F)(F)F)cc4Cl)c3)cc2)CC(C)N1 (stereo not shown)
14 | Cc1noc(C)c1-c1nc(COc2cc(-c3ccc(C(=O)N4CC(C)NC(C)C4)cc3)cnc2N)no1 (stereo not shown)
9 | COc1ccccc1-c1nc(COc2cc(-c3ccc(C(=O)N4CC(C)NC(C)C4)cc3)cnc2N)no1 (stereo not shown)
30 | CC1CN(C(=O)c2ccc(-c3cnc(N)c(OCc4noc(-c5cccc(C(F)(F)F)c5)n4)c3)cc2)CC(C)N1 (stereo not shown)
6 | CC1CN(C(=O)c2ccc(-c3cnc(N)c(OCc4nsc(Cl)n4)c3)cc2)CC(C)N1 (stereo not shown)
26 | CC1CN(C(=O)c2ccc(-c3cnc(N)c(OCc4cc(Cl)cc(Cl)c4)c3)cc2)CC(C)N1 (stereo not shown)
32 | CC1CN(C(=O)c2ccc(-c3cnc(N)c(OCc4cccc(Oc5ccccc5)c4)c3)cc2)CC(C)N1 (stereo not shown)
15 | CC1CN(C(=O)c2ccc(-c3cnc(N)c(OCc4ccc(C(=O)N5CCN(Cc6ccccc6)CC5)cc4)c3)cc2)CC(C)N1 (stereo not shown)
18 | CC1CN(C(=O)c2ccc(-c3cnc(N)c(OCc4cccc(C(=O)NCCc5ccccn5)c4)c3)cc2)CC(C)N1 (stereo not shown)
18 | CC1CN(C(=O)c2ccc(-c3cnc(N)c(OCc4cccc(C(=O)NC5CCN(Cc6ccccc6)C5)c4)c3)cc2)CC(C)N1 (stereo not shown)
19 | CC1CN(C(=O)c2ccc(-c3cnc(N)c(OCc4ccc(C(=O)NCCc5ccccn5)cc4)c3)cc2)CC(C)N1 (stereo not shown)
12 | CC1CN(C(=O)c2ccc(-c3cnc(N)c(OCc4ccc(C(=O)NCCN5CCCC5)cc4)c3)cc2)CC(C)N1 (stereo not shown)
10 | CCN1CCCC1CNC(=O)c1cccc(COc2cc(-c3ccc(C(=O)N4CC(C)NC(C)C4)cc3)cnc2N)c1 (stereo not shown)

Same assay, conditions: cells prefixed Ki; read-out: Met Ki

Ki [µM] | SMILES
0.61 | CC(Oc1cc(C#CC(C)(C)NC(=O)N2CCN(C)CC2)cnc1N)c1c(Cl)ccc(F)c1Cl (stereo not shown) [Example I-432, 4-Methyl-piperazine-1-carboxylic acid (3-{6-amino-5-[1-(2,6-dichloro-3-fluoro-phenyl)-ethoxy]-pyridin-3-yl}-1,1-dimethyl-prop-2-ynyl)-amide]
1.5 | CC(Oc1cc(C#CC(C)(C)NC(=O)N2C[C@@H](C)N[C@@H](C)C2)cnc1N)c1c(Cl)ccc(F)c1Cl (stereo partly drawn) [Example I-433, (3R,5S)-3,5-Dimethyl-piperazine-1-carboxylic acid (3-{6-amino-5-[1-(2,6-dichloro-3-fluoro-phenyl)-ethoxy]-pyridin-3-yl}-1,1-dimethyl-prop-2-ynyl)-amide]
1.22 | CC(Oc1cc(C#CC(C)(C)NC(=O)N2CCC[C@@H]2CN2CCCC2)cnc1N)c1c(Cl)ccc(F)c1Cl (stereo partly drawn) [Example I-434, (R)-2-Pyrrolidin-1-ylmethyl-pyrrolidine-1-carboxylic acid (3-{6-amino-5-[1-(2,6-dichloro-3-fluoro-phenyl)-ethoxy]-pyridin-3-yl}-1,1-dimethyl-prop-2-ynyl)-amide]
1.58 | CC(Oc1cc(C#CC(C)(C)NC(=O)N2CCC[C@H]2CN2CCCC2)cnc1N)c1c(Cl)ccc(F)c1Cl (stereo partly drawn) [Example I-435, (S)-2-Pyrrolidin-1-ylmethyl-pyrrolidine-1-carboxylic acid (3-{6-amino-5-[1-(2,6-dichloro-3-fluoro-phenyl)-ethoxy]-pyridin-3-yl}-1,1-dimethyl-prop-2-ynyl)-amide]
1.11 | CC(Oc1cc(C#CC(C)(C)NC(=O)NCCN2CCOCC2)cnc1N)c1c(Cl)ccc(F)c1Cl (stereo not shown) [Example I-436, 1-(3-{6-Amino-5-[1-(2,6-dicloro-3-fluoro-phenyl)-ethoxy]-pyridin-3-yl}-1,1-dimethyl-prop-2-ynyl)-3-(2-morpholin-4-yl-ethyl)-urea]
0.61 | CC(Oc1cc(C#CC(C)(C)NC(=O)NCCN2CCCC2)cnc1N)c1c(Cl)ccc(F)c1Cl (stereo not shown) [Example I-437, 1-(3-{6-Amino-5-[1-(2,6-dicloro-3-fluoro-phenyl)-ethoxy]-pyridin-3-yl}-1,1-dimethyl-prop-2-ynyl)-3-(2-pyrrolidin-1-yl-ethyl)-urea]
0.72 | CC(Oc1cc(C#CC(C)(C)NC(=O)N2CCC(N3CCCC3)CC2)cnc1N)c1c(Cl)ccc(F)c1Cl (stereo not shown) [Example I-438, 4-Pyrrolidin-1-yl-pipendine-1-carboxylic acid (3-{6-amino-5-[1-(2,6-dichloro-3-fluoro-phenyl)-ethoxy]-pyridin-3-yl}-1,1-dimethyl-prop-2-ynyl)-amide]
0.46 | CC(Oc1cc(C#CC(=O)NC2CCCCC2)cnc1N)c1c(Cl)ccc(F)c1Cl (stereo not shown) [Example I-439, 3-{6-Amino-5-[1-(2,6-dichloro-3-fluoro-phenyl)-ethoxy]-pyridin-3-yl}-propynoic acid cyclohexylamide]
0.43 | CC(C)NC(=O)C#Cc1cnc(N)c(OC(C)c2c(Cl)ccc(F)c2Cl)c1 (stereo not shown) [Example I-440, 3-{6-Amino-5-[1-(2,6-dichloro-3-fluoro-phenyl)-ethoxy]-pyridin-3-yl}-propynoic acid isopropylamide]
1.06 | CC(Oc1cc(C#CC(C)(C)N)ccc1N)c1c(Cl)ccc(F)c1Cl (stereo not shown) [Example I-441, 4-(3-Amino-3-methyl-but-1-ynyl)-2-[1-(2,6-dichloro-3-fluoro-phenyl)-ethoxy]-phenylamine]
0.68 | C=Cc1cnc(N)c(OC(C)c2c(Cl)ccc(F)c2Cl)c1 (stereo not shown) [Example I-461, 3-[1-(2,6-Dichloro-3-fluoro-phenyl)-ethoxy]-5-vinyl-pyridin-2-ylamine]
0.34 | CC(Oc1cc(-c2cnn(CCN3CCCC3)c2)cnc1N)c1c(Cl)ccc(F)c1Cl (stereo not shown) [Example I-465, 3-[1-(2,6-Dichloro-3-fluoro-phenyl)-ethoxy]-5-[1-(2-pyrrolidin-1-yl-ethyl)-1H-pyrazol-4-yl]-pyridin-2-ylamine]
0.47 | CC(Oc1cc(-c2cnn(CCN(C(C)C)C(C)C)c2)cnc1N)c1c(Cl)ccc(F)c1Cl (stereo not shown) [Example I-466, 3-[1-(2,6-Dichloro-3-fluoro-phenyl)-ethoxy]-5-[1-(2-diisopropylamino-ethyl)-1H-pyrazol-4-yl]-pyridin-2-yl amine]
0.083 | CC(Oc1cc(-c2cnn(CCN3CCOCC3)c2)cnc1N)c1c(Cl)ccc(F)c1Cl (stereo not shown) [Example I-467, 3-[1-(2,6-Dichloro-3-fluoro-phenyl)-ethoxy]-5-[1-(2-morpholin-4-yl-ethyl)-1H-pyrazol-4-yl]-pyridin-2-ylamine]
12.1 | CC(C)Oc1c(F)cccc1COc1cc(Br)cnc1N [Example I-472, 5-Bromo-3-(3-fluoro-2-isopropoxy-benzyloxy)-pyridin-2-ylamine]
12.7 | CC(C)Oc1c(F)cccc1COc1cc(-c2ccc(C(=O)N3C[C@@H](C)N[C@@H](C)C3)cc2)cnc1N [Example I-473, {4-[6-Amino-5-(3-fluoro-2-isopropoxy-benzyloxy)-pyridin-3-yl]-phenyl}-((3R,5S)-3,5-dimethyl-piperazin-1-yl)-methanone]
